Values of other authors, collected in PMC5911155 (Nature chemistry, 2018).

System: Aβ42 monomers
Conditions: ref [7], [42]

Substance: Aβ40: fibrils constructed from other proteins and peptides, including Aβ40
- ability of fibrils to catalyse nucleation of Aβ42 monomers: not able to efficiently catalyse nucleation of Aβ42 monomers
